Experimental data published in ChEMBL document CHEMBL5346969 (J Med Chem, 2023).
Values after ≈ are worked out from the molar mass of the structure shown. Active and inactive are the calls of the source. The calls are words filed in the database; no cut-off is given here.

Columns and labels:
[1] = tested on: MDA-MB-231; assay: Induction of ferroptosis in human MDA-MB-231 cells assessed as cell viability at 1 uM incubated for 72 hrs in presence of glutathione by MTT assay; type: functional, cell-based
[2] = Toxicity in immunodeficient BALB/c mouse xenografted with human MDA-MB-231 cells assessed as morphological changes in liver at 20 mg/kg, ip for 21 days by H and E staining based microscopy; type: organism-based; conditions: in vivo, 504 h, time 21 day
[3] = tested on: MDA-MB-231; assay: Induction of ferroptosis-mediated morphological changes in human MDA-MB-231 cells assessed as broken outer membrane at 20 nM incubated for 6 hrs by TEM analysis; type: functional, cell-based
[4] = tested on: MDA-MB-231; assay: Induction of ferroptosis-mediated morphological changes in human MDA-MB-231 cells assessed as ruptured mitochondria at 20 nM incubated for 6 hrs by TEM analysis; type: functional, cell-based
[5] = Toxicity in immunodeficient BALB/c mouse xenografted with human MDA-MB-231 cells assessed as body weight change at 5 to 20 mg/kg, ip for 21 days; type: organism-based; conditions: in vivo, 504 h, dose 5-20 mg/kg, time 21 day
[6] = tested on: MDA-MB-231; assay: Induction of ferroptosis in human MDA-MB-231 cells assessed as cell viability at 1 uM incubated for 72 hrs in presence of ferroptosis inhibitor, ferrostatin-1 by MTT assay; type: functional, cell-based
[7] = tested on: MDA-MB-468; assay: Antiproliferative activity against human MDA-MB-468 cells assessed as inhibition of cell viability at 1 uM incubated for 72 hrs by CCK-8 assay; type: functional, cell-based
[8] = tested on: MDA-MB-231; assay: Induction of ferroptosis in human MDA-MB-231 cells with assessed as decrease in xCT protein expression level at 5 to 20 nM incubated for 8 hrs by Western blot analysis; type: functional, cell-based; conditions: dose 5-20 nM
[9] = tested on: MDA-MB-231; assay: Induction of ferroptosis in human MDA-MB-231 cells assessed as cell viability incubated for 72 hrs in presence of apoptosis inhibitor, Z-VAD-FMK by MTT assay; type: functional, cell-based; conditions: MDA-MB-231, 72 h
[10] = tested on: MDA-MB-231; assay: Induction of ferroptosis in human MDA-MB-231 cells assessed as cell viability at 1 uM incubated for 72 hrs in presence of autophagy inhibitor, 3-MA by MTT assay; type: functional, cell-based
[11] = tested on: MDA-MB-231; assay: Induction of ferroptosis-mediated morphological changes in human MDA-MB-231 cells assessed as increased membrane density at 20 nM incubated for 6 hrs by TEM analysis; type: functional, cell-based
[12] = tested on: MDA-MB-231; assay: Induction of ferroptosis in human MDA-MB-231 cells assessed as cell viability incubated for 72 hrs in presence of N-acetyl-L-cysteine by MTT assay; type: functional, cell-based; conditions: MDA-MB-231, 72 h
[13] = tested on: A549; assay: Antiproliferative activity against human A549 cells assessed as inhibition of cell viability at 1 uM incubated for 72 hrs by MTT assay; type: functional, cell-based
[14] = tested on: BT-549; assay: Antiproliferative activity against human BT-549 cells assessed as inhibition of cell viability incubated for 72 hrs by MTT assay; type: functional, cell-based; conditions: BT-549, 72 h
[15] = Solubility of compound at pH 7.4; type: physicochemical; conditions: buffer
[16] = tested on: MDA-MB-231; assay: Induction of ferroptosis in human MDA-MB-231 cells assessed as cell viability incubated for 72 hrs in presence of necrosis inhibitor, necrostatin-1 by MTT assay; type: functional, cell-based; conditions: MDA-MB-231, 72 h
[17] = Metabolic stability in rat plasma at 1 uM and measured upto 24 hrs by LC-MS/MS analysis; type: ADME, cell-free
[18] = tested on: MDA-MB-231; assay: Induction of ferroptosis in human MDA-MB-231 cells with assessed as change in GPX4 protein expression level at 5 to 20 nM incubated for 8 hrs in presence of ferroptosis inhibitor, ferrostatin-1 by Western blot analysis; type: functional, cell-based; conditions: dose 5-20 nM
[19] = tested on: HepG2; assay: Antiproliferative activity against human HepG2 cells assessed as inhibition of cell viability at 1 uM incubated for 72 hrs by MTT assay; type: functional, cell-based
[20] = tested on: MDA-MB-231; assay: Induction of ferroptosis in human MDA-MB-231 cells assessed as increase in intracellular lipid peroxidase by measuring MDA content at 5 to 20 nM incubated for 8 hrs by C11-BODIPY-581/591 staining based flow cytometry analysis; type: functional, cell-based; conditions: dose 5-20 nM
[21] = tested on: MDA-MB-231; assay: Induction of ferroptosis in human MDA-MB-231 cells assessed as increase in intracellular lipid peroxidase by measuring decrease in red fluorescence intensity at 5 to 20 nM incubated for 8 hrs by C11-BODIPY-581/591 staining based confocal laser microscopy; type: functional, cell-based; conditions: dose 5-20 nM
[22] = tested on: MDA-MB-231; assay: Induction of ferroptosis in human MDA-MB-231 cells assessed as increase in intracellular ROS accumulation by measuring green fluorescence intensity at 5 to 20 nM incubated for 8 hrs by DCFH-DA staining based confocal laser microscopy; type: functional, cell-based; conditions: dose 5-20 nM
[23] = tested on: MCF-10A; assay: Cytotoxicity against human MCF-10A cells assessed as inhibition of cell viability at 1 uM incubated for 72 hrs by MTT assay; type: toxicity, cell-based
[24] = target: T1, Phospholipid hydroperoxide glutathione peroxidase GPX4 (Homo sapiens, UniProt P36969); assay: Covalent inhibition of GPX4 (unknown origin) assessed as inhibition constant incubated for 30 to 90 mins in presence of glutathione, glutathione reductase and NADPH by microplate reader analysis
T1 sequence (P36969 whole entry): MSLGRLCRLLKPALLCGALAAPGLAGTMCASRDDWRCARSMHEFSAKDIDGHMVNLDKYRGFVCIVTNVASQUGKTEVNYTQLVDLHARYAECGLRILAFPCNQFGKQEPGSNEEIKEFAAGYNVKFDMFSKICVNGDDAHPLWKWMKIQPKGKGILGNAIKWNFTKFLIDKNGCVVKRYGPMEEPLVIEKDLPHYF

[25] = tested on: MDA-MB-231; assay: Antiproliferative activity against human MDA-MB-231 cells assessed as inhibition of cell viability at 1 uM incubated for 72 hrs by MTT assay; type: functional, cell-based
[26] = Selectivity ratio, ratio of IC50 for Induction of ferroptosis in human MDA-MB-231 cells assessed as reduction in cell viability in presence of ferroptosis inhibitor, ferrostatin-1 to IC50 for antiproliferative activity against human MDA-MB-231 cells; type: functional
[27] = tested on: MDA-MB-231; assay: Induction of ferroptosis in human MDA-MB-231 cells with assessed as decrease in FTH1 protein expression level at 5 to 20 nM incubated for 8 hrs by Western blot analysis; type: functional, cell-based; conditions: dose 5-20 nM
[28] = tested on: K562; assay: Antiproliferative activity against human K562 cells assessed as inhibition of cell viability at 1 uM incubated for 72 hrs by MTT assay; type: functional, cell-based
[29] = tested on: MDA-MB-231; assay: Induction of ferroptosis in human MDA-MB-231 cells assessed as increase in intracellular ROS accumulation by measuring green fluorescence intensity at 20 nM incubated for 8 hrs in presence of ferroptosis inhibitor, ferrostatin-1 by DCFH-DA staining based confocal laser microscopy; type: functional, cell-based
[30] = tested on: MDA-MB-231; assay: Inhibition of colony formation in human MDA-MB-231 cells at 20 nM incubated for 14 days by crystal violet staining based assay; type: functional, cell-based; conditions: time 14.0 day
[31] = tested on: MDA-MB-231; assay: Induction of ferroptosis in human MDA-MB-231 cells assessed as cell viability incubated for 72 hrs in presence of autophagy inhibitor, 3-MA by MTT assay; type: functional, cell-based; conditions: MDA-MB-231, 72 h
[32] = tested on: MDA-MB-231; assay: Induction of ferroptosis in human MDA-MB-231 cells with assessed as change in FTH1 protein expression level at 5 to 20 nM incubated for 8 hrs in presence of ferroptosis inhibitor, ferrostatin-1 by Western blot analysis; type: functional, cell-based; conditions: dose 5-20 nM

COc1cc(N(C(=O)CCl)c2ccc3c(c2)OCCO3)cc(OC)c1F
Activity [1]: Active | Activity [2]: Non-Toxic | Activity [3]: Active | Activity [4]: Active | Activity [5]: Non-Toxic | Activity [6]: Active | Activity [7]: Active | Activity [8]: inactive | IC50 [9]: 31 nM | Activity [10]: inactive | Activity [11]: Active | IC50 [12]: > 20000 nM | Activity [13]: inactive | IC50 [14]: 75 nM | solubility [15]: 3.63 µg/mL (≈ 9.51 µM) | IC50 [16]: 22 nM | Stability [17]: Stable | Activity [18]: inactive | Activity [19]: inactive | Activity [20]: Dose-Dependent Effect | Activity [21]: Dose-Dependent Effect | Activity [22]: Dose-Dependent Effect | Activity [23]: Non-Toxic | Ki [24]: 630 nM | Activity [25]: Active | Ratio IC50 [26]: 249.5 | Activity [27]: Active | Activity [28]: inactive | Activity [29]: inactive | inhibition [30]: Active | IC50 [31]: 18 nM | Activity [32]: inactive

COc1cc(N(C(=O)CBr)c2ccc3c(c2)OCCO3)cc(OC)c1F
Activity [1]: Active | Activity [2]: Non-Toxic | Activity [3]: Active | Activity [4]: Active | Activity [5]: Non-Toxic | Activity [6]: Active | Activity [7]: Active | Activity [8]: inactive | IC50 [9]: 30 nM | Activity [10]: inactive | Activity [11]: Active | IC50 [12]: > 20000 nM | Activity [13]: inactive | IC50 [14]: 34 nM | solubility [15]: 3.3 µg/mL (≈ 7.74 µM) | IC50 [16]: 25 nM | Stability [17]: Stable | Activity [18]: inactive | Activity [19]: inactive | Activity [20]: Dose-Dependent Effect | Activity [21]: Dose-Dependent Effect | Activity [22]: Dose-Dependent Effect | Activity [23]: Non-Toxic | Ki [24]: 590 nM | Activity [25]: Active | Ratio IC50 [26]: 218.8 | Activity [27]: Active | Activity [28]: inactive | Activity [29]: inactive | inhibition [30]: Active | IC50 [31]: 18 nM | Activity [32]: inactive
